This assay concerns LRF (luteinizing hormone release factor) induced luteinizing hormone (LH) release. Nature of the assay: In vitro test for LRF antagonist activity in rat anterior pituitary cell cultures. In kind it is cell-based. The text has this:
Pentapeptides of this invention were screened for LRF antagonist activity in vitro using rat anterior pituitary cell cultures as described by Vale et. al. [Endocrinology, 91, 562 (1972)]. The inhibition of LRF (luteinizing hormone release factor) induced luteinizing hormone (LH) release into the culture medium is the endpoint in this in vitro bioassay.

Setting [1] is: compound Molar Conc. 1 × 10^-7, LRF 3.5 × 10^-10, rat anterior pituitary cell cultures.
The mark [2] stands for this setting: compound Molar Conc. 3 × 10^-7, LRF 3.5 × 10^-10, rat anterior pituitary cell cultures.
The mark [3] stands for this setting: compound Molar Conc. 5 × 10^-8, LRF 3.5 × 10^-10, rat anterior pituitary cell cultures.
The mark [4] stands for this setting: compound Molar Conc. 6 × 10^-7, LRF 3.5 × 10^-10, rat anterior pituitary cell cultures.
Where [5] appears, read: compound Molar Conc. 1 × 10^-6, LRF 2.5 × 10^-10, rat anterior pituitary cell cultures.

Consider three substances from patent US4062835A, “Pentapeptides and methods for their production” (Parke, Davis & Company, priority 1976, dated 1977).

Where no end group is shown, it is not given here.

“LRF: luteinizing hormone releasing factor, formed in the hypothalamus; stimulates secretion of luteinizing hormone; used as the stimulus in the bioassay (QHWSYGLRPG; ends and bridges not checked; UniProt P01148 24-33, looked up) [reference compound]”: the “LH Value” by setting is: (LRF alone, Molar Conc. 2.5 × 10^-10 (control of second experiment; saline control 7.70)) 36.96 ng/mL; (LRF alone, Molar Conc. 3.5 × 10^-10 (control of first experiment; saline control 6.46)) 40.46 ng/mL.
For the substance “N^α -t-Butoxycarbonyl-N^im -benzyl-L-histidyl-O-methyl-L-tyrosyl-O-benzyl-L-seryl-L-tryptophyl-D-alanine N-ethylamide”, the “% LH Release Inhibition” value was determined as 69% under setting [1], 90% under setting [2], 56% under setting [3] and 98% under setting [4]. For the same substance, the “LH Value” was 17.2 ng/mL under setting [1], 10.16 ng/mL under setting [2], 21.61 ng/mL under setting [3] and 7.72 ng/mL under setting [4].
Regarding “N^α -t-Butoxycarbonyl-N^im -benzyl-L-histidyl-O-methyl-L-tyrosyl-O-benzyl-L-seryl-L-tryptophyl-D-alanine methyl ester”, under setting [5], the “% LH Release Inhibition” value was 69% and the “LH Value” stood at 16.89 ng/mL.
